Data on eleven molecules can be found in patent US11692004B2, “Substituted pyrazole compound, preparation method therefor, pharmaceutical composition and medical use thereof” (JIANGSU VANGUARD PHARMACEUTICAL CO., LTD., priority 2018, dated 2023).

By IC50 is commonly meant the concentration needed to halve the response being measured. What is called solubility is the concentration that dissolves in the medium under given conditions. By EC50 is commonly meant the concentration at which the effect is half-maximal.

Data set [1] in a line: Cytotoxic test (MTT). The class given is cell-based. To be noted: rat, PC12 cells, 48 h incubation. The protocol:
(§1) After resuscitating, the PC12 cells were cultured in RPMI-1640 containing 10% horse serum and 5% Fetus Bovine Serum (FBS) under 5% CO2 at 37° C. for two weeks. The medium was changed every other day. The compounds were diluted into solutions of 12.5, 25, 50, 100, 200, 300 μM with culture medium (except examples 33-45 with additional solutions of 400 μM and 500 μM). The PC12 cells were seeded into a 96-well plate at a density of 1.2×10^4 cells/well and cultured in a 37° C., 5% CO2 incubator for 24 hours. Remove the medium, the cells were added with the compound solutions of different concentrations as test solutions for another 48 h incubation in a 37° C., 5% CO2 incubator.
After the incubation, the wells were added with 20 μL 5 mg/mL MTT and incubated for 4 hours at 37° C. Carefully removed the medium and added 150 μL DMSO. The plates were placed on an enzyme-labeled instrument and vibrated for 5 min. The absorbance Atest solution were obtained at 490 nm with the Ablank of the well without cells and the Acontrol of the well with untreated cells. The survival rates of the cells in every well were calculated by the formula as Survival rate (%)=(Atest solution−Ablank)/(Acontrol−Ablank)*100%

The nature of data set [2]: Solubility test in distilled water. The class given is physicochemical. The settings on record: thermodynamic from solid, 25° C. On the procedure:
Test method: the dry compound was slowly dissolved into about 0.5 ml distilled water in a 5 ml EP tube until saturation (turbid after ultra-sonic vibration at 25° C.). The solution was filtered and moved to another clean 5 ml EP tube (pre-weighed) and the tube was weighed again to calculate the solution weight. The solution was freeze dried. The remaining solute was weighed to calculate the solvent weight, and then the compound solubility in water was determined.

Data set [3] relates to PC12 cells. Nature of the data set: In-vitro neuroprotection-I (H2O2 injury, MTT). To be noted: Rattus norvegicus, PC-12, 48 h compound, then 200 μM H2O2 24 h, MTT survival rate. Type of data set: cell-based. On the procedure: All samples were made into 60 mM stock solution by DMSO, which were 200 times diluted to 300 μM by medium. And the final concentration was further diluted into different concentrations by media.
Control: Normal cell-plating and same cell medium as other group. 24 hours later, the medium was discarded. Incubate the cell in new media for 24 hours. No compound and hydrogen peroxide treatment. Other steps were the same as the sample test as mentioned below did.
Blank: no cell plating, cell medium, and other steps were the same as the sample test as mentioned below did.
as §1, with “(except that” for “(except”, “The PC 12” for “The PC12”, “of 8×10^3” for “of 1.2×10^4”, “hours. Removed” for “hours. Remove”, “incubator. After the incubation, apart from the blank and control groups, the wells (including 0 μM drug group) were added to the medium-prepared 200 μM H2O2, and continued for another 24 h incubation in a 37° C., 5% CO2 incubator.” for “incubator.”
After the incubation, the wells were added with 20 μL 5 mg/mL MTT and incubated for 4 hours at 37° C. Carefully removed the medium and added 150 μL DMSO. The plates were placed on an enzyme-labeled instrument and vibrated for 5 min. The absorbance Atest solution were obtained at 490 nm with the Ablank of the well without cells and the Acontrol of the well with untreated cells. The survival rate of the cells in every well by the formula survival rate (%)=(Atest solution−Ablank)/(Acontrol−Ablank)*100%.

Data set [4] deals with MCAO model (middle cerebral artery ischemia-reperfusion). Nature of the data set: In vivo drug efficacy test of MCAO model. The settings on record: SD rats, MCAO 2 h then reperfusion, tail vein infusion 30 min; for Cerebral infarction area (%): TTC staining, infarct area to whole brain area; for Improvements of nerve function (%): score at 24 h versus model control.
In data set [5] the test system is B6SJL-Tg (SOD1*G93A) mice. Nature of the data set: In vivo efficacy test of ALS model. To be noted: for Onset time(d) / Survival time / Plasma SOD concentration on day 28th(U/mL) / PaGE / Rotarod Time: 86 μmol/kg i.p. once a day for 4 weeks; for Plasma SOD concentration on day 28th(U/mL): ELISA; for PaGE / Rotarod Time: versus solvent group; for Fall latency in rota-rod test and PaGE test: 28-day drug intervention. Also on record: key to Rotarod Time / PaGE: “+” indicates a significant difference compared with the solvent group, p < 0.05. The protocol:
B6SJL-Tg (SOD1*G93A) mice were intraperitoneally administered single-doses once a day for 4 consecutive weeks. The weight of the mice was determined before and after the administration every week. The motor function of the mice was determined by rota-rod and PaGE tests with the time points before and after 4-week administration. The mice plasma was collected and detected for SOD levels through ELISA. The Index Evaluation described below was used to evaluate the efficacy of the compounds of the examples in ALS model and to what extent the compounds of the examples improve the survival period and motor activity.
The animals were delivered to the SPF animal room and raised for more than one week. Five days before the test, the mice were accustomed to a round of tests per day. The mice were randomly divided into groups according to their body weights, 8 mice for each group. Among them, the solvent group was given with the same volume of solvent (physiological saline) every day.
The mice were administered with a volume of 10 ml/kg.
i.p once a day for 4 weeks.
Index evaluation time started from the beginning of the experiment to the death of the animals.
1) ALS onset time: For 2 consecutive observation days, the mice appeared limb, tremor and/or limb weakness at tail suspension were determined as the ALS onset. The determination of limb weakness: the mice were placed on the rota-rod device with a diameter of 3.5 cm. The speed is set to 15 rpm to record the longest fall latency divided by 420 s. The mice of less 420 s were determined as limb weakness.
2) Rota-rod Test: The mice were placed on the rota-rod device with a diameter of 3.5 cm. The speed is set to 12 rpm to record the longest fall latency divided by 180 s. The latency of more than 180 s was recorded as 180 s, and actual time was recorded when less than 180 s.
3) Paw Grip Endurance (PaGE) Test: The mice were placed on the traditional wire grid. The grid was gently shaken to cause the mice to tighten its grip on the wires then inverted, and time recording commenced. The time was recorded until the mouse lost its grip in hind limbs divided by 90 s. The time more than 90 s was recorded as 90 s, while the time less than 90 s was recorded by its actual time. The test was completed in triplicate with the highest score used for analysis.
5) Plasma SOD concentration: The blood was collected and mixed with EP tube containing heparin before and after administration at the 4th week, and then centrifuged at 1000 g for 10 min. The plasma was collected and stored in aliquots at −70° C. ELISA kit was used to detect plasma SOD levels.

SMILES strings stand for the structures. In brackets after ≈: the same amount, converted by molar mass.

For the molecule `Cc1cc(OC2O[C@H](CO)[C@H](O)[C@H](O)[C@H]2O)n(-c2ccccc2)n1` (stereo partly drawn) [Compound 35, 1-phenyl-3-methyl-5-O-D-galactoside-pyrazole], in data set [1], the IC50 at 48 h is above 300 µM. Further, the solubility in data set [2] came to 18000 µg/mL (≈ 53.5 mM). In data set [3], this molecule returned an EC50 of 87.9 µM. In addition, in data set [4], the “Cerebral infarction area (%)” value was 15.8% and the “Improvements of nerve function (%)” value is 22.2%.
The molecule `Cc1cc(OC2O[C@H](CO)[C@@H](O)[C@H]2O)n(-c2ccccc2)n1` (stereo partly drawn) [Compound 39, 1-phenyl-3-methyl-5-O-D-riboside-pyrazole] came in with an IC50 at 48 h in data set [1] above 500 µM. For the same molecule, the solubility in data set [2] worked out at 5100 µg/mL (≈ 16.6 mM). This molecule also returned an EC50 in data set [3] of 55 µM. Moreover, in data set [4], the “Cerebral infarction area (%)” value amounted to 18.0% and the “Improvements of nerve function (%)” value came out at 16.9%.
The corresponding values for `Cc1cc(OC2C[C@@H](O)[C@H](O)[C@@H](CO)O2)n(-c2ccccc2)n1` (stereo partly drawn) [Compound 36, 1-phenyl-3-methyl-5-O-D-(2-deoxy)glucoside-pyrazole] are above 300 µM, 4200 µg/mL (≈ 13.1 mM), 79.6 µM, 14.1% and 24.1%.
In data set [1], `CCC(=O)NCOc1cc(C)nn1-c1ccccc1` [Compound 42, N-((1-phenyl-3-methyl-1H-pyrazol-5-yl)oxy) methyl propionamide] came in with an IC50 at 48 h above 300 µM. This molecule also returned an EC50 in data set [3] of 75.4 µM. In data set [4], the “Cerebral infarction area (%)” value is 19.7% and the “Improvements of nerve function (%)” value was 15.9%.
In the case of `CC(=O)N[C@H]1C(Oc2cc(C)nn2-c2ccccc2)O[C@H](CO)[C@@H](O)[C@@H]1O` (stereo partly shown) [Compound 37], the IC50 at 48 h in data set [1] was above 500 µM. Besides, the solubility in data set [2] is 6500 µg/mL (≈ 17.2 mM). Further, the EC50 in data set [3] stood at 90 µM. Moreover, in data set [4], the “Cerebral infarction area (%)” value is given as 17.6% and the “Improvements of nerve function (%)” value amounted to 17.5%.
Take `Cc1cc(OC2O[C@H](CO)[C@@H](O)[C@H](O)[C@@H]2O)n(-c2ccccc2)n1` (stereo partly drawn) [Compound 34, 1-phenyl-3-methyl-5-O-D-mannoside-pyrazole]: in data set [1], the concentration for half-maximal inhibition (IC50) at 48 h is above 300 µM. The molecule further displayed a solubility in data set [2] of 12300 µg/mL (≈ 36.6 mM). The EC50 in data set [3] came out at 120 µM. In data set [4], the “Cerebral infarction area (%)” value is recorded as 14.5% and the “Improvements of nerve function (%)” value worked out at 21.1%.
With `Cc1cc(OC2OC[C@@H](O)[C@H](O)[C@H]2O)n(-c2ccccc2)n1` (stereo partly drawn) [Compound 38, 1-phenyl-3-methyl-5-O-D-xylopyranoside-pyrazole], the IC50 at 48 h in data set [1] was above 500 µM. This molecule also displayed a solubility in data set [2] of 3800 µg/mL (≈ 12.4 mM). In addition, in data set [4], the “Cerebral infarction area (%)” value was 17.8% and the “Improvements of nerve function (%)” value was found to be 17.0%.
`Cc1cc(OCOC(=O)CCCc2ccccc2)n(-c2ccccc2)n1` [Compound 16, (3-methyl-1-phenylpyrazol-5-) oxymethyl phenylbutyrate]: 234 µM corresponded to half-maximal inhibition in data set [1] (IC50 at 48 h). Moreover, the EC50 in data set [3] was determined as 48 µM. In addition, in data set [4], the “Cerebral infarction area (%)” value worked out at 19.9% and the “Improvements of nerve function (%)” value is on record as 16.2%.
For the molecule `Cc1cc(OC2C[C@H](O)[C@@H](CO)O2)n(-c2ccccc2)n1` (stereo partly drawn) [Compound 40, 1-phenyl-3-methyl-5-O-D-(2-deoxy)riboside-pyrazole], in data set [1], the IC50 at 48 h was above 500 µM. This molecule came in with a solubility in data set [2] of 3000 µg/mL (≈ 10.3 mM). Moreover, the concentration giving a half-maximal response (EC50) in data set [3] was found to be 54.7 µM. Further, in data set [4], the “Cerebral infarction area (%)” value was determined as 18.5% and the “Improvements of nerve function (%)” value turned out to be 16.8%.
Regarding `Cc1cc(OC2O[C@H](CO)[C@@H](O)[C@H](O)[C@H]2O)n(-c2ccccc2)n1` (stereo partly drawn) [Compound 33, 1-phenyl-3-methyl-5-O-D-glucoside-pyrazole], in data set [5], the “Onset time(d)” value is recorded as 118.25 ± 5.87* d, the “Survival time” value was 149.88 ± 8.37 days, the “Plasma SOD concentration on day 28th(U/mL)” value is 155.18 ± 15.37* U/mL and the PaGE entry was “+”. In data set [5], the “Rotarod Time” value was “+”; the “Fall latency in rota-rod test and PaGE test” value is recorded as “better than the marketed drug edaravone”. The IC50 at 48 h in data set [1] is above 300 µM. In addition, in data set [2], the solubility turned out to be 10100 µg/mL (≈ 30 mM). In addition, in data set [3], the EC50 was 112 µM. Moreover, in data set [4], the “Cerebral infarction area (%)” value is listed as 14.0% and the “Improvements of nerve function (%)” value is 24.0%.
`Cc1cc(OCOC(=O)c2cc(N(C)C)ccc2O)n(-c2ccccc2)n1` [Compound 24, (3-methyl-1-phenylpyrazole-5-)oxymethyl-(2-hydroxy-5-N,N-dimethyl)benzoate]: in data set [5], the “Onset time(d)” value is given as 118.29 ± 6.32* d, the “Survival time” value is 147.71 ± 8.94 days, the “Plasma SOD concentration on day 28th(U/mL)” value is reported as 150.55 ± 11.88* U/mL and the PaGE result is on record as “+”. For the same molecule, in data set [5], the “Rotarod Time” value is recorded as “+”; the “Fall latency in rota-rod test and PaGE test” value is on record as “better than the marketed drug edaravone”. In addition, in data set [1], the IC50 at 48 h amounted to 272 µM. Also, the EC50 in data set [3] stood at 44.7 µM.
